How the values were obtained:
MES-SA cells [1] = test: Intracellular ROS generation, DCF-DA assay, MES-SA; format: cell-based, human; conditions: 25 μM, 4 h treatment
Description: (§1) ROS accumulation was evaluated in both the MES-SA and MES-SA/Dx5 cell lines by using 2′,7′-dichlorodihydrofluorescein diacetate (H2DCF-DA) as a probe. This compound enters the cells by passive diffusion, and after oxidation, it is converted to the highly fluorescent 2′,7′-dichlorofluorescein (DCF), enabling the estimation of intracellular ROS levels. ROS generation was measured after a 4 h treatment with 25 μM H2L^6 or 6; tert-butylhydroperoxide (TBHP, 25 μM) was used as a positive control.
(§2) Figure 6 Intracellular ROS generation measured by the DCF-DA assay in MES-SA (filled bars) and MES-SA/Dx5 (lattice bars) cells, after a 4 h treatment with the indicated compounds at 25 μM: H2L^6 (gray), complex 6 (yellow), Triapine (green), and TBHP (brown). Values indicate fold change relative to the fluorescence of the cells treated with fluorescent probe alone (orange bars), following normalization to the initial fluorescence at the beginning of the incubation. Paired t test to the medium control was calculated; […]; **P < 0.01. Values were calculated from at least three independent experiments.
(§3) The human uterine sarcoma cell lines MES-SA and the doxorubicin selected MES-SA-Dx5 were obtained from ATCC (MES-SA: No. CRL-1976, MES-SA/Dx5: No. CRL-1977) and were used for the intracellular ROS generation studies. […]

MES-SA/Dx5 cells = test: Intracellular ROS generation, DCF-DA assay, MES-SA/Dx5; format: cell-based, human; conditions: 25 μM, 4 h treatment
Description: as §1, §2, §3

MES-SA cells [2] = test: dNTP pools in MES-SA cell extracts; format: cell-based, human; conditions: at both concentrations (10 and 25 μM), 24 h
Text: RNR reduces NDPs to their corresponding deoxy derivatives (dNDPs), which are further converted into dNTPs.[77] Therefore, we investigated the effect of the most toxic proligand H2L^6 and its copper(II) complex 6 on cellular dNTP levels, using Triapine as a control. […] Triapine also elicits a dATP pool decrease while increasing the pools of the three other dNTP species. Decreasing the dATP pool to zero can give rise to the observed cytotoxic effect upon treatment with Triapine. Complex 6 seems to affect dNTP pools by a more complex mechanism, which is nevertheless consistent with R2 inhibition.[79]
Figure 8 Measurement of dNTP pools in MES-SA cell extracts following a 24 h treatment with proligand H2L^6, complex 6, or Triapine at the indicated concentrations. Three independent experiments were performed; error bars represent standard error; stars indicate significant changes compared to the respective control (Ctrl) at p < 0.05.
After a 24 h incubation with or without drugs, MES-SA cells were washed twice with PBS and trypsinized for 5 min. […] The pellet containing dNTPs was redissolved in 50 μL of RNase-free water and stored at −20 °C. dNTP-containing samples were measured by a nucleotide incorporation-based fluorescent method.[97] We used a long synthetic oligonucleotide (197 nt) as a template, which contains a dNTP-detection site, the sole complementary base to that of the dNTP to be quantified directly adjacent to the annealed primer. […] In addition to the limiting amount of dNTP to be quantified, the polymerization reaction mix contained the other three dNTPs in large excess. The double-stranded DNA product is detected by the EvaGreen Dye. The 2X master mix for the DNA synthesis reaction contained the following: 0.275 μM primer (Merck KGaA, Darmstadt, Germany), 0.25 μM template (IDT, Coralville, Iowa, USA), 50 μM dNTP mix (excluding the dNTP to be measured in the given experiment to limit its source to the sample), and 1.25 μM EvaGreen (Biotium). […] Fluorescence amplitude data were extracted from the Bio-Rad CFX Maestro Software and analyzed using Excel and Origin. […]

tubulin = test: Inhibition of [3H]colchicine binding to tubulin; conditions: for inhibition of colchicine binding % inhibition ± SD: tubulin 0.5 μM, colchicine 5 μM

Compound: Cc1cc(NC(=NN=Cc2cccc(CN3CCOCC3)n2)[S][Cu][Cl])cc(C)c1O [complex 6, [Cu(HL^6)Cl]·H2O]
- Intracellular ROS generation (MES-SA cells [1]): significant ROS induction
- Intracellular ROS generation (MES-SA/Dx5 cells): significant ROS induction
- dATP and dTTP levels (MES-SA cells [2]): marked decrease
- inhibition of colchicine binding % inhibition ± SD (tubulin; 5 μM inhibitor): 5.8 ± 5%
- inhibition of colchicine binding % inhibition ± SD (tubulin; 25 μM inhibitor): 33 ± 2%
- fold less potent than CA-4 in inhibiting [3H]colchicine binding (tubulin; at the 5 μM concentration): 17 fold

Reference: paper PMC11181322, “Copper(II) Complexes with Isomeric Morpholine-Substituted 2-Formylpyridine Thiosemicarbazone Hybrids as Potential Anticancer Drugs Inhibiting Both Ribonucleotide Reductase and Tubulin Polymerization: The Morpholine Position Matters” (Journal of Medicinal Chemistry, 2024)
